For the assay, the target named is rhCatC (Cathepsin C) (Homo sapiens, UniProt P53634). Nature of the assay: In Vitro CatC Enzyme Assay. The settings on record: read-out: Cat C Enzy (Cathepsin C inhibitory activity, IC50). The assay is classed as biochemical. The protocol: In Vitro CatC Enzyme Assay
The CatC enzyme assay was performed in black 384-well plate. Firstly, rhCatC (440 nM) was activated by rhCatL (300 nM) in activation buffer (25 mM MES, 5 mM DTT, pH 6.0) at room temperature for 2 h and then activated rhCatC was diluted to 4.4 nM in assay buffer (25 mM MES, 50 mM NaCl, 5 mM DTT, 0.01% (v/v) Triton X100, pH 6.0), 14 μL activated rhCatC and 1 μL compound in 10% DMSO or 10% DMSO were incubated at room temperature for 3 h, and 5 μL substrate (Gly-Phe-AFC) was added to final concentration of 100 μM. After 60 min reaction, the product of the reaction was measured in the Enspire plate reader using Ex λ400 nm and Em λ505 nm for AFC. A standard irreversible CatC inhibitor 10 by AstraZeneca (J. Med. Chem. 2014, 57, 2357-2367) was used as an inhibitor control in the assay.

The record followed here is US20210114983A1, “Cathepsin C inhibitors” (National Institute of Biological Sciences, Beijing, priority 2018, published 2021).

As usually defined, the IC50 is the point on the concentration scale where inhibition reaches its midpoint.

Sequence of rhCatC (Cathepsin C) (P53634 25-134 limits assumed): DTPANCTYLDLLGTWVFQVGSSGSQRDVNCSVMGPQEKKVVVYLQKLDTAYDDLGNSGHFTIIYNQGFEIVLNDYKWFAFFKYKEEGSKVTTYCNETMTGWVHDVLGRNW
Sequence of rhCatC (Cathepsin C) (P53634 231-394 limits assumed): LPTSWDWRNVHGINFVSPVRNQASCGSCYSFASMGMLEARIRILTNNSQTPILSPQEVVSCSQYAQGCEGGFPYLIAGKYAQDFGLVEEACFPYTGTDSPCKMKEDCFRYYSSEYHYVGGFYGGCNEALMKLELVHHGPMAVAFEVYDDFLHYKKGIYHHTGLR
Sequence of rhCatC (Cathepsin C) (P53634 395-463 limits assumed): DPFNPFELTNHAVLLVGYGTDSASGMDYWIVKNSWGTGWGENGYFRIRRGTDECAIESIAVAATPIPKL

In the case of `C=CC(=O)Nc1cc(Oc2nc(Nc3ccc(N4CCN(C)CC4)cc3OC)ccc2-c2ccccc2)ccc1C` [Compound 34, N-(5-((6-((2-methoxy-4-(4-methylpiperazin-1-yl)phenyl)amino)-3-phenylpyridin-2-yl)oxy)-2-methylphenyl)acrylamide], the concentration for half-maximal inhibition (IC50) was in the range of 0.003 to 0.3 µM.

Turning to `C=CC(=O)Nc1cc(Oc2nc(Nc3ccc(N4CCN(C)CC4)nc3OC)ccc2N2CCCCC2)ccc1C` [Compound 35, N-(5-((6-((2-methoxy-6-(4-methylpiperazin-1-yl)pyridin-3-yl)amino)-3-(piperidin-1-yl)pyridin-2-yl)oxy)-2-methylphenyl)acrylamide], the IC50 lay in the range of 0.003 to 0.3 µM.

For the compound `C=CC(=O)Nc1cc(Oc2nc(Nc3ccc(N4CCN(C(C)=O)CC4)cc3OC)ccc2N2CCCCC2)ccc1C` [Compound 36, N-(5-((6-((4-(4-acetylpiperazin-1-yl)-2-methoxyphenyl)amino)-3-(piperidin-1-yl)pyridin-2-yl)oxy)-2-methylphenyl)acrylamide], the IC50 is 0.003 to 0.3 µM.

As for `C=CC(=O)Nc1cc(Oc2nc(Nc3ccc(N4CCC(N(C)C)CC4)cc3OC)ccc2N2CCCCC2)ccc1C` [Compound 37, N-(5-((6-((4-(4-(dimethylamino)piperidin-1-yl)-2-methoxyphenyl)amino)-3-(piperidin-1-yl)pyridin-2-yl)oxy)-2-methylphenyl)acrylamide], the IC50 was 0.003 to 0.3 µM.

As to `C=CC(=O)Nc1cc(Oc2nc(Nc3ccc(N4CCN(C)CC4)cc3)ccc2N2CCCCC2)ccc1C` [Compound 38, N-(2-methyl-5-((6-((4-(4-methylpiperazin-1-yl)phenyl)amino)-3-(piperidin-1-yl)pyridin-2-yl)oxy)phenyl)acrylamide], the IC50 lay within 0.003 to 0.3 µM.

Consider `C=CC(=O)Nc1cc(Oc2nc(Nc3ccc(N4CCN(C)CC4)cc3OC)ccc2N2CCCC2)ccc1OC` [Compound 39, N-(2-methoxy-5-((6-((2-methoxy-4-(4-methylpiperazin-1-yl)phenyl)amino)-3-(pyrrolidin-1-yl)pyridin-2-yl)oxy)phenyl)acrylamide], for which the IC50 is 0.003 to 0.3 µM.

For `C=CC(=O)Nc1cc(Oc2cccc(Nc3ccc(N4CCN(C)CC4)cc3OC)n2)ccc1OC` [Compound 40, N-(2-methoxy-5-((6-((2-methoxy-4-(4-methylpiperazin-1-yl)phenyl)amino)pyridin-2-yl)oxy)phenyl)acrylamide], the concentration for half-maximal inhibition (IC50) was 0.3 to 30 µM.

Turning to `C=CC(=O)Nc1cccc(Oc2nc(Nc3ccc(N4CCN(C)CC4)cc3OC)ccc2N2CCCC2)c1C` [Compound 41, N-(3-((6-((2-methoxy-4-(4-methylpiperazin-1-yl)phenyl)amino)-3-(pyrrolidin-1-yl)pyridin-2-yl)oxy)-2-methylphenyl)acrylamide], the IC50 was 0.3 to 30 µM.

As for `C=CC(=O)Nc1ccc(C)c(Oc2nc(Nc3ccc(N4CCN(C)CC4)cc3OC)ccc2N2CCCC2)c1` [Compound 42, N-(3-((6-((2-methoxy-4-(4-methylpiperazin-1-yl)phenyl)amino)-3-(pyrrolidin-1-yl)pyridin-2-yl)oxy)-4-methylphenyl)acrylamide], the IC50 was in the range of 0.3 to 30 µM.

`C=CC(=O)Nc1cc(Oc2cccc(Nc3ccc(N4CCN(C)CC4)cc3OC)n2)ccc1C` [Compound 43, N-(5-((6-((2-methoxy-4-(4-methylpiperazin-1-yl)phenyl)amino)pyridin-2-yl)oxy)-2-methylphenyl)acrylamide]: the IC50 is 0.003 to 0.3 µM.

For `C=CC(=O)Nc1cc(Oc2nc(Nc3ccc(N4CCN(C)CC4)cc3OC)ccc2N2CCCC2)ccc1C(F)(F)F` [Compound 44, N-(5-((6-((2-methoxy-4-(4-methylpiperazin-1-yl)phenyl)amino)-3-(pyrrolidin-1-yl)pyridin-2-yl)oxy)-2-(trifluoromethyl)phenyl)acrylamide], the IC50 lay in the range of 0.003 to 0.3 µM.

Regarding `C=CC(=O)Nc1cc(Oc2nc(Nc3ccc(N4CCN(C)CC4)cc3OC)ccc2N2CCCCC2)ccc1C(F)(F)F` [Compound 45], the IC50 is 0.003 to 0.3 µM.

On to `COc1cc(N2CCN(C)CC2)ccc1Nc1ccc(N2CCCCC2)c(Oc2ccc(C)c(NC(=O)C=C(C)C)c2)n1` [Compound 46, N-(5-((6-((2-methoxy-4-(4-methylpiperazin-1-yl)phenyl)amino)-3-(piperidin-1-yl)pyridin-2-yl)oxy)-2-methylphenyl)-3-methylbut-2-enamide], for which the IC50 was 0.3 to 30 µM.

With `CC#CC(=O)Nc1cc(Oc2nc(Nc3ccc(N4CCN(C)CC4)cc3OC)ccc2N2CCCCC2)ccc1C` [Compound 47, N-(5-((6-((2-methoxy-4-(4-methylpiperazin-1-yl)phenyl)amino)-3-(piperidin-1-yl)pyridin-2-yl)oxy)-2-methylphenyl)but-2-ynamide], the IC50 lay within 0.3 to 30 µM.

Take `C#CC(=O)Nc1cc(Oc2nc(Nc3ccc(N4CCN(C)CC4)cc3OC)ccc2N2CCCCC2)ccc1C` [Compound 48, N-(5-((6-((2-methoxy-4-(4-methylpiperazin-1-yl)phenyl)amino)-3-(piperidin-1-yl)pyridin-2-yl)oxy)-2-methylphenyl)propiolamide]: the IC50 was in the range of 0.003 to 0.3 µM.

For the compound `C=C(F)C(=O)Nc1cc(Oc2nc(Nc3ccc(N4CCN(C)CC4)cc3OC)ccc2N2CCCCC2)ccc1C` [Compound 49, 2-fluoro-N-(5-((6-((2-methoxy-4-(4-methylpiperazin-1-yl)phenyl)amino)-3-(piperidin-1-yl)pyridin-2-yl)oxy)-2-methylphenyl)acrylamide], the concentration for half-maximal inhibition (IC50) lay in the range of 0.3 to 30 µM.

For the compound `C=CC(=O)Nc1cc(Oc2nc(Nc3ccc(N4CCN(C)CC4)cc3OC)ccc2Cl)ccc1C(F)(F)F` [Compound 50, N-(5-((3-chloro-6-((2-methoxy-4-(4-methylpiperazin-1-yl)phenyl)amino)pyridin-2-yl)oxy)-2-(trifluoromethyl)phenyl)acrylamide], the concentration for half-maximal inhibition (IC50) was 0.003 to 0.3 µM.

As for `C=CC(=O)Nc1cc(Oc2cccc(Nc3ccc(N4CCN(C)CC4)cc3OC)n2)ccc1C(F)(F)F` [Compound 51, N-(5-((6-((2-methoxy-4-(4-methylpiperazin-1-yl)phenyl)amino)pyridin-2-yl)oxy)-2-(trifluoromethyl)phenyl)acrylamide], the IC50 was in the range of 0.003 to 0.3 µM.

As for `C=CC(=O)Nc1cccc(Oc2nc(Nc3ccc(N4CCN(C)CC4)cc3OC)ccc2N2CCCCC2)c1` [Compound 52, N-(3-((6-((2-methoxy-4-(4-methylpiperazin-1-yl)phenyl)amino)-3-(piperidin-1-yl)pyridin-2-yl)oxy)phenyl)acrylamide], the IC50 fell in the range of 0.003 to 0.3 µM.

Consider `C=CC(=O)Nc1cccc(Oc2nc(Nc3ccc(N4CCN(C)CC4)cc3OC)ccc2N2CCCCCC2)c1` [Compound 53, N-(3-((3-(azepan-1-yl)-6-((2-methoxy-4-(4-methylpiperazin-1-yl)phenyl)amino)pyridin-2-yl)oxy)phenyl)acrylamide], for which the IC50 was 0.003 to 0.3 µM.

With `C=CC(=O)Nc1cc(Oc2nc(Nc3ccc(N4CCNCC4)cc3OC)ccc2N2CCCCC2)ccc1C` [Compound 54], the 50% inhibitory concentration (IC50) lay in the range of 0.003 to 0.3 µM.

As to `C=CC(=O)Nc1cc(Oc2nc(Nc3ccc(N4CCC(N(C)C)CC4)cn3)ccc2N2CCCCC2)ccc1C` [Compound 55], the half-inhibitory concentration (IC50) was 0.3 to 30 µM.

Turning to `C#CCN1CCN(c2ccc(Nc3ccc(N4CCCCC4)c(Oc4ccc(C)c(NC(=O)C=C)c4)n3)c(OC)c2)CC1` [Compound 56], the IC50 fell in the range of 0.003 to 0.3 µM.
